# Molecular target: HLA-A∗02:01 (Homo sapiens, UniProt P04439, D140Y/D185E/D98H/E176V/E277Q/G131W/G231S/I119V/I121R/I166T/I218V/L300P/L318F/N151K/N90K/P208A/P217A/Q86G/Q94H/R138H/R169H/T345S)
# Type: binding
# Settings: n = 2
substance,measurement,value
YM2SODGTM6SOSQV [M2SOM6SO],IC50 compared with the native peptide,increased
